Laboratory results: patent US20240300932A1, “N-PHENYLIMINE DERIVATIVE AND PREPARATION METHOD AND USE THEREOF” (Guizhou University, priority 2023, published 2024)

What was measured:
Experiment in all cases: Post-emergence herbicidal activity test (stem and leaf spray, pot culture)
Format in all cases: in vivo
Settings in all cases: 3 weeks after spraying
[1] = system: Setaria viridis
Outline: (§1)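 Read-out: fresh weight control rate 3 weeks post-spray, graded 5 (≥85%) down to 0 (<5%). Foliar spray at 2–3-leaf stage; rates 10, 5, 2.5 g/mu; acetone + Tween 80 formulation with methyl oleate synergist; greenhouse 20–30 °C, natural light.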

[2] = system: Abutilon theophrasti
Outline: as §1

[3] = system: Echinochloa crusgalli
Outline: as §1

[4] = system: Portulaca oleracea
Outline: as §1

[5] = system: Amaranthus retroflexus
Outline: as §1

[6] = system: Trifoliumre pensL.
Outline: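 Pot-grown weeds in loam (pH 7), greenhouse at 20–30 °C, sprayed once post-emergence at the 2–3-leaf stage. Compound in acetone with Tween 80 plus methyl oleate oil (1.5 L/ha), applied at 10, 5 and 2.5 g/mu by spray tower. Effect scored 3 weeks after spraying, averaged over three repeats.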

Row | Structure (SMILES) | Post-emergence herbicidal activity, S. viridis (grade) ([1]; dosage 2.5 g/mu) | Post-emergence herbicidal activity, S. viridis (grade) ([1]; dosage 5 g/mu) | Post-emergence herbicidal activity, S. viridis (grade) ([1]; dosage 10 g/mu) | Post-emergence herbicidal activity, A. theophrasti (grade) ([2]; dosage 2.5 g/mu) | Post-emergence herbicidal activity, A. theophrasti (grade) ([2]; dosage 5 g/mu) | Post-emergence herbicidal activity, A. theophrasti (grade) ([2]; dosage 10 g/mu) | Post-emergence herbicidal activity, E. crusgalli (grade) ([3]; dosage 2.5 g/mu) | Post-emergence herbicidal activity, E. crusgalli (grade) ([3]; dosage 5 g/mu) | Post-emergence herbicidal activity, E. crusgalli (grade) ([3]; dosage 10 g/mu) | Post-emergence herbicidal activity, P. oleracea (grade) ([4]; dosage 2.5 g/mu) | Post-emergence herbicidal activity, P. oleracea (grade) ([4]; dosage 5 g/mu) | Post-emergence herbicidal activity, P. oleracea (grade) ([4]; dosage 10 g/mu) | Post-emergence herbicidal activity, A. retroflexus (grade) ([5]; dosage 2.5 g/mu) | Post-emergence herbicidal activity, A. retroflexus (grade) ([5]; dosage 5 g/mu) | Post-emergence herbicidal activity, A. retroflexus (grade) ([5]; dosage 10 g/mu) | Post-emergence herbicidal activity, Trifoliumre pensL. (grade) ([6]; dosage 2.5 g/mu) | Post-emergence herbicidal activity, Trifoliumre pensL. (grade) ([6]; dosage 5 g/mu) | Post-emergence herbicidal activity, Trifoliumre pensL. (grade) ([6]; dosage 10 g/mu)
1 | O=C1C2=C(CCCC2)C(=O)N1c1cc(OCc2nc(-c3ccccc3F)no2)c(Cl)cc1F [Compound A12] | 2 (Grade 2: the growth control rate is greater than or equal to 20% and less than 40%) | 3 (Grade 3: the growth control rate is greater than or equal to 40% and less than 60%) | 4 (Grade 4: the growth control rate is greater than or equal to 60% and less than 85%) | 5 (Grade 5: the growth control rate is greater than or equal to 85%) | 5 (Grade 5: the growth control rate is greater than or equal to 85%) | 5 (Grade 5: the growth control rate is greater than or equal to 85%) | 1 (Grade 1: the growth control rate is greater than or equal to 5% and less than 20%) | 2 (Grade 2: the growth control rate is greater than or equal to 20% and less than 40%) | 3 (Grade 3: the growth control rate is greater than or equal to 40% and less than 60%) | 4 (Grade 4: the growth control rate is greater than or equal to 60% and less than 85%) | 5 (Grade 5: the growth control rate is greater than or equal to 85%) | 5 (Grade 5: the growth control rate is greater than or equal to 85%) | 5 (Grade 5: the growth control rate is greater than or equal to 85%) | 5 (Grade 5: the growth control rate is greater than or equal to 85%) | 5 (Grade 5: the growth control rate is greater than or equal to 85%) | 4 (Grade 4: the growth control rate is greater than or equal to 60% and less than 85%) | 5 (Grade 5: the growth control rate is greater than or equal to 85%) | 5 (Grade 5: the growth control rate is greater than or equal to 85%)
2 | O=C1C2=C(CCCC2)C(=O)N1c1ccc(Cl)c(OCc2nc(-c3cc(F)cc(Br)c3)no2)c1F [Compound A13, 2-(3-(3-(3-(3-bromo-5-fluorophenyl)-1,2,4-oxadiazole-5-yl)methoxy)-4-chloro-2-fluorophenyl)-4,5,6,7-tetrahydro-1H-isoindole-1,3(2H)-dione] | 2 (Grade 2: the growth control rate is greater than or equal to 20% and less than 40%) | 3 (Grade 3: the growth control rate is greater than or equal to 40% and less than 60%) | 4 (Grade 4: the growth control rate is greater than or equal to 60% and less than 85%) | 5 (Grade 5: the growth control rate is greater than or equal to 85%) | 5 (Grade 5: the growth control rate is greater than or equal to 85%) | 5 (Grade 5: the growth control rate is greater than or equal to 85%) | 1 (Grade 1: the growth control rate is greater than or equal to 5% and less than 20%) | 2 (Grade 2: the growth control rate is greater than or equal to 20% and less than 40%) | 3 (Grade 3: the growth control rate is greater than or equal to 40% and less than 60%) | 4 (Grade 4: the growth control rate is greater than or equal to 60% and less than 85%) | 5 (Grade 5: the growth control rate is greater than or equal to 85%) | 5 (Grade 5: the growth control rate is greater than or equal to 85%) | 5 (Grade 5: the growth control rate is greater than or equal to 85%) | 5 (Grade 5: the growth control rate is greater than or equal to 85%) | 5 (Grade 5: the growth control rate is greater than or equal to 85%) | 4 (Grade 4: the growth control rate is greater than or equal to 60% and less than 85%) | 5 (Grade 5: the growth control rate is greater than or equal to 85%) | 5 (Grade 5: the growth control rate is greater than or equal to 85%)
3 | O=C1C2=C(CCCC2)C(=O)N1c1cc(OCc2nc(-c3ccc(F)c(F)c3)no2)c(Cl)cc1F [Compound A14] | 2 (Grade 2: the growth control rate is greater than or equal to 20% and less than 40%) | 3 (Grade 3: the growth control rate is greater than or equal to 40% and less than 60%) | 4 (Grade 4: the growth control rate is greater than or equal to 60% and less than 85%) | 5 (Grade 5: the growth control rate is greater than or equal to 85%) | 5 (Grade 5: the growth control rate is greater than or equal to 85%) | 5 (Grade 5: the growth control rate is greater than or equal to 85%) | 1 (Grade 1: the growth control rate is greater than or equal to 5% and less than 20%) | 2 (Grade 2: the growth control rate is greater than or equal to 20% and less than 40%) | 3 (Grade 3: the growth control rate is greater than or equal to 40% and less than 60%) | 4 (Grade 4: the growth control rate is greater than or equal to 60% and less than 85%) | 5 (Grade 5: the growth control rate is greater than or equal to 85%) | 5 (Grade 5: the growth control rate is greater than or equal to 85%) | 5 (Grade 5: the growth control rate is greater than or equal to 85%) | 5 (Grade 5: the growth control rate is greater than or equal to 85%) | 5 (Grade 5: the growth control rate is greater than or equal to 85%) | 4 (Grade 4: the growth control rate is greater than or equal to 60% and less than 85%) | 5 (Grade 5: the growth control rate is greater than or equal to 85%) | 5 (Grade 5: the growth control rate is greater than or equal to 85%)
4 | Cc1ccc(-c2noc(COc3cc(N4C(=O)C5=C(CCCC5)C4=O)c(F)cc3Cl)n2)c(Cl)c1 [Compound A15] | 2 (Grade 2: the growth control rate is greater than or equal to 20% and less than 40%) | 3 (Grade 3: the growth control rate is greater than or equal to 40% and less than 60%) | 4 (Grade 4: the growth control rate is greater than or equal to 60% and less than 85%) | 5 (Grade 5: the growth control rate is greater than or equal to 85%) | 5 (Grade 5: the growth control rate is greater than or equal to 85%) | 5 (Grade 5: the growth control rate is greater than or equal to 85%) | 1 (Grade 1: the growth control rate is greater than or equal to 5% and less than 20%) | 2 (Grade 2: the growth control rate is greater than or equal to 20% and less than 40%) | 3 (Grade 3: the growth control rate is greater than or equal to 40% and less than 60%) | 5 (Grade 5: the growth control rate is greater than or equal to 85%) | 5 (Grade 5: the growth control rate is greater than or equal to 85%) | 5 (Grade 5: the growth control rate is greater than or equal to 85%) | 5 (Grade 5: the growth control rate is greater than or equal to 85%) | 5 (Grade 5: the growth control rate is greater than or equal to 85%) | 5 (Grade 5: the growth control rate is greater than or equal to 85%) | 5 (Grade 5: the growth control rate is greater than or equal to 85%) | 5 (Grade 5: the growth control rate is greater than or equal to 85%) | 5 (Grade 5: the growth control rate is greater than or equal to 85%)
